In this test the target is T1, Human PIP4K2C (Homo sapiens, UniProt Q8TBX8).
T1 construct: purchased Eurofins DiscoverX 87-0007-1094
T1 sequence (Q8TBX8 1-421): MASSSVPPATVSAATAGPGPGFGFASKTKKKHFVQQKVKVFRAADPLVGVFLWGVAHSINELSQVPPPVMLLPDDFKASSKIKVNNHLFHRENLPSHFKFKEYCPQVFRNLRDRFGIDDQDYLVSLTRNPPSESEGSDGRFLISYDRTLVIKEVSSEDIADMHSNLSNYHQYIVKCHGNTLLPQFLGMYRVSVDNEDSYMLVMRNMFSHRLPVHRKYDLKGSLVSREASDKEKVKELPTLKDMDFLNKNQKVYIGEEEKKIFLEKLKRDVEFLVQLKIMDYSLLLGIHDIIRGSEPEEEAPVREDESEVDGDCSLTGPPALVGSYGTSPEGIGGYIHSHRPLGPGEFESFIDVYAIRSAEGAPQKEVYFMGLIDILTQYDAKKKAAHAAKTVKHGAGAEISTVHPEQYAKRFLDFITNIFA
The test can be described thus: Enzyme binding assay (KINOMEscan), active site-directed competition binding. Conditions: 11-point dose response, duplicate, top concentration 5 micromolar; read-out: Pip4k2c Kd: IC50. The procedure:
PIP4K2C binding constants disclosed herein were determined using the proprietary Human PIP4K2C binding assay (Catalog number 87-0007-1094, Eurofins DiscoverX, San Diego, CA). This assay measures active site-directed competition binding to an immobilized ligand (see https://doi.org/10.1038/nbt1068, herein incorporated by reference in its entirety). Experiments were conducted using an 11-point dose response curve, in duplicate, with a top starting concentration of 5 micromolar; the Levenberg-Marquardt algorithm was used to fit a Hill equation to dose-response data to calculate IC50 values (see Table 5).

Bounds are passed on as bounds.

IC50 data for 33 compounds are collected here from patent publication US20260184691A1, “INHIBITORS AND DEGRADERS OF PIP4K PROTEIN” (Larkspur Biosciences, Inc., priority 2022, published 2026).

Take `CC(=O)N1CCCC(c2cccc(-c3nc(Nc4cncc(N5CCCC5=O)c4)ncc3Cl)c2)C1` (stereo not drawn) [Compound 34, 1-(5-((4-(3-(1-acetylpiperidin-3-yl)phenyl)-5-chloropyrimidin-2-yl)amino)pyridin-3-yl)pyrrolidin-2-one]: the IC50 is less than 0.5 µM. In the case of `CN1CC2(CC(=O)N(c3cncc(Nc4ncc(Cl)c(-c5cccc(-c6ccccc6)c5)n4)c3)C2)C1` [Compound 35, 6-(5-((4-([1,1′-biphenyl]-3-yl)-5-chloropyrimidin-2-yl)amino)pyridin-3-yl)-2-methyl-2,6-diazaspiro[3.4]octan-7-one], the IC50 was less than 0.5 µM.

On to `CC(=O)N1CC2(CC(=O)N(c3cncc(Nc4ncc(Cl)c(-c5cccc(-c6ccccc6)c5)n4)c3)C2)C1` [Compound 36, 6-(5-((4-([1,1′-biphenyl]-3-yl)-5-chloropyrimidin-2-yl)amino)pyridin-3-yl)-2-acetyl-2,6-diazaspiro[3.4]octan-7-one], for which the IC50 is less than 0.5 µM. Regarding `O=C1CCCN1c1cncc(Nc2ncc(Cl)c(N3CCC(N4CCCC4)C3)n2)c1` (stereo not drawn) [Compound 37, 1-(5-((4-([1,3′-bipyrrolidin]-1′-yl)-5-chloropyrimidin-2-yl)amino)pyridin-3-yl)pyrrolidin-2-one], the IC50 was less than 0.5 µM. To `O=C1CCCN1c1cncc(Nc2ncc(Cl)c(-c3cccc(N4CCCCC4)c3)n2)c1` [Compound 38, 1-(5-((5-chloro-4-(3-(piperidin-1-yl)phenyl)pyrimidin-2-yl)amino)pyridin-3-yl)pyrrolidin-2-one] belongs less than 0.5 µM; to `O=C1CCCN1c1cncc(Nc2ncc(Cl)c(-c3cccc(C4CCC4)c3)n2)c1` [Compound 39, 1-(5-((5-chloro-4-(3-cyclobutylphenyl)pyrimidin-2-yl)amino)pyridin-3-yl)pyrrolidin-2-one], less than 0.5 µM.

Turning to `O=C1CCCN1c1cncc(Nc2ncc(Cl)c(-c3cccc(C4CCCC4)c3)n2)c1` [Compound 40, 1-(5-((5-chloro-4-(3-cyclopentylphenyl)pyrimidin-2-yl)amino)pyridin-3-yl)pyrrolidin-2-one], the IC50 was less than 0.5 µM. As for `O=C1CCCN1c1cncc(Nc2ncc(Cl)c(N3CCOC(c4ccccc4)C3)n2)c1` (stereo not drawn) [Compound 41, 1-[5-[[5-chloro-4-(2-phenylmorpholin-4-yl)pyrimidin-2-yl]amino]-3-pyridyl]pyrrolidin-2-one], the figure is less than 0.5 µM; as for `O=C1CCCN1c1cncc(Nc2ncc(Cl)c(N3CCC(c4ccccc4)C3)n2)c1` (stereo not drawn) [Compound 42, 1-(5-((5-chloro-4-(3-phenylpyrrolidin-1-yl)pyrimidin-2-yl)amino)pyridin-3-yl)pyrrolidin-2-one], less than 0.5 µM; as for `O=C1CCCN1c1cncc(Nc2ncc(Cl)c(N3CCC[C@@H](c4ccccc4)C3)n2)c1` [Compound 43, (S)-1-(5-((5-chloro-4-(3-phenylpiperidin-1-yl)pyrimidin-2-yl)amino)pyridin-3-yl)pyrrolidin-2-one], less than 0.5 µM. As for `O=C1CCCN1c1cncc(Nc2ncc(Cl)c(N3CCC[C@H](c4ccccc4)C3)n2)c1` [Compound 44, (R)-1-(5-((5-chloro-4-(3-phenylpiperidin-1-yl)pyrimidin-2-yl)amino)pyridin-3yl)pyrrolidin-2-one], the figure is less than 0.5 µM. To `O=C1CCCN1c1cncc(Nc2ncc(Cl)c(N3CCC(C4CCCCC4)C3)n2)c1` (stereo not drawn) [Compound 45, 1-(5-((5-chloro-4-(3-cyclohexylpyrrolidin-1-yl)pyrimidin-2-yl)amino)pyridin-3-yl)pyrrolidin-2-one] belongs 0.5 to 1 µM; to `O=C1CCCN1c1cncc(Nc2ncc(Cl)c(-c3cccc(N4CCCC4)c3)n2)c1` [Compound 46, 1-(5-((5-chloro-4-(3-(pyrrolidin-1-yl)phenyl)pyrimidin-2-yl)amino)pyridin-3-yl)pyrrolidin-2-one], less than 0.5 µM.

Consider `CN1CCC(n2cc(-c3nc(Nc4cncc(N5CCCC5=O)c4)ncc3Cl)cn2)CC1` [Compound 47, 1-(5-((5-chloro-4-(1-(1-methylpiperidin-4-yl)-1H-pyrazol-4-yl)pyrimidin-2-yl)amino)pyridin-3-yl)pyrrolidin-2-one], for which the IC50 is less than 0.5 µM. As for `CC(=O)N1CCC(n2cc(-c3nc(Nc4cncc(N5CCCC5=O)c4)ncc3Cl)cn2)CC1` [Compound 48, 1-(5-((4-(1-(1-acetylpiperidin-4-yl)-1H-pyrazol-4-yl)-5-chloropyrimidin-2-yl)amino)pyridin-3-yl)pyrrolidin-2-one], the figure is less than 0.5 µM; as for `O=C1CCCN1c1cncc(Nc2ncc(Cl)c(-c3cc(-c4ccccc4)[nH]n3)n2)c1` [Compound 49, 1-(5-((5-chloro-4-(5-phenyl-1H-pyrazol-3-yl)pyrimidin-2-yl)amino)pyridin-3-yl)pyrrolidin-2-one], less than 0.5 µM. With `O=C1CCCN1c1cncc(Nc2ncc(Cl)c(-c3cc(C4CC4)[nH]n3)n2)c1` [Compound 50, 1-(5-((5-chloro-4-(5-cyclopropyl-1H-pyrazol-3-yl)pyrimidin-2-yl)amino)pyridin-3-yl)pyrrolidin-2-one], the IC50 was less than 0.5 µM. As for `Cn1cc(-c2nc(Nc3cncc(N4CCCC4=O)c3)ncc2Cl)cn1` [Compound 90, 1-(5-((5-chloro-4-(1-methyl-1H-pyrazol-4-yl)pyrimidin-2-yl)amino)pyridin-3-yl)pyrrolidin-2-one], the figure is less than 0.5 µM; as for `O=C1CCCN1c1cncc(Nc2ncc(Cl)c(-c3cccc(Cl)c3)n2)c1` [Compound 92, 1-(5-((5-chloro-4-(3-chlorophenyl)pyrimidin-2-yl)amino)pyridin-3-yl)pyrrolidin-2-one], less than 0.5 µM. To `O=C1CCCN1c1cncc(Nc2ncc(Cl)c(-c3ccc(Cl)cc3)n2)c1` [Compound 93, 1-(5-((5-chloro-4-(4-chlorophenyl)pyrimidin-2-yl)amino)pyridin-3-yl)pyrrolidin-2-one] belongs less than 0.5 µM. In the case of `Cc1ccc(-c2nc(Nc3cncc(N4CCCC4=O)c3)ncc2Cl)cc1` [Compound 94, 1-(5-((5-chloro-4-(p-tolyl)pyrimidin-2-yl)amino)pyridin-3-yl)pyrrolidin-2-one], the IC50 is less than 0.5 µM.

Take `O=C1CCCN1c1cncc(Nc2ncc(Cl)c(-c3ccccc3Cl)n2)c1` [Compound 95, 1-(5-((5-chloro-4-(2-chlorophenyl)pyrimidin-2-yl)amino)pyridin-3-yl)pyrrolidin-2-one]: the IC50 was less than 0.5 µM.

Consider `O=C1CCCN1c1cncc(Nc2ncc(Cl)c(N3CCCCC3)n2)c1` [Compound 96, 1-(5-((5-chloro-4-(piperidin-1-yl)pyrimidin-2-yl)amino)pyridin-3-yl)pyrrolidin-2-one], for which the IC50 is less than 0.5 µM. To `O=C1CCCN1c1cncc(Nc2ncc(Cl)c(C3CCCCC3)n2)c1` [Compound 97, 1-(5-((5-chloro-4-cyclohexylpyrimidin-2-yl)amino)pyridin-3-yl)pyrrolidin-2-one] belongs less than 0.5 µM; to `CC(C)c1cccc(-c2nc(Nc3cncc(N4CCCC4=O)c3)ncc2Cl)c1` [Compound 98, 1-(5-((5-chloro-4-(3-isopropylphenyl)pyrimidin-2-yl)amino)pyridin-3-yl)pyrrolidin-2-one], less than 0.5 µM. To `O=C1CCCN1c1cncc(Nc2ncc(Cl)c(N3CCCC(O)C3)n2)c1` (stereo not drawn) [Compound 99] belongs less than 0.5 µM; to `CC1CCCN(c2nc(Nc3cncc(N4CCCC4=O)c3)ncc2Cl)C1` (stereo not drawn) [Compound 100, 1-(5-((5-chloro-4-(3-methylpiperidin-1-yl)pyrimidin-2-yl)amino)pyridin-3-yl)pyrrolidin-2-one], less than 0.5 µM. As for `O=C1CCCN1c1cncc(Nc2ncc(Cl)c(N3CCCC(C(F)(F)F)C3)n2)c1` (stereo not drawn) [Compound 101, 1-(5-((5-chloro-4-(3-(trifluoromethyl)piperidin-1-yl)pyrimidin-2-yl)amino)pyridin-3-yl)pyrrolidin-2-one], the figure is less than 0.5 µM; as for `CC1CCN(c2nc(Nc3cncc(N4CCCC4=O)c3)ncc2Cl)CC1` [Compound 102, 1-(5-((5-chloro-4-(4-methylpiperidin-1yl)pyrimidin-2-yl)amino)pyridin-3-yl)pyrrolidin-2-one], less than 0.5 µM. Take `O=C1CCCN1c1cncc(Nc2cc(-c3ccc(F)cc3)c(Cl)cn2)c1` [Compound 103, 1-(5-((5-chloro-4-(4-fluorophenyl)pyridin-2-yl)amino)pyridin-3-yl)pyrrolidin-2-one]: the IC50 was less than 0.5 µM.

Turning to `O=C1CCCN1c1cncc(Nc2cc(-c3ccc(F)cc3F)c(Cl)cn2)c1` [Compound 104, 1-(5-((5-chloro-4-(2,4-difluorophenyl)pyridin-2-yl)amino)pyridin-3-yl)pyrrolidin-2-one], the IC50 fell in the range of 0.5 to 1 µM.

With `Cc1cc(-c2nc(Nc3cncc(N4CCCC4=O)c3)ncc2Cl)ccn1` [Compound 105, 1-(5-((5-chloro-4-(2-methylpyridin-4-yl)pyrimidin-2-yl)amino)pyridin-3-yl)pyrrolidin-2-one], the IC50 lay in the range of 0.5 to 1 µM. For the compound `CC1CCCCN1c1nc(Nc2cncc(N3CCCC3=O)c2)ncc1Cl` (stereo not drawn) [Compound 106, 1-(5-((5-chloro-4-(2-methylpiperidin-1-yl)pyrimidin-2-yl)amino)pyridin-3-yl)pyrrolidin-2-one], the IC50 is less than 0.5 µM.

In general, IC50 refers to the midpoint of a concentration-inhibition curve.
